Measurements from patent US20220009920A1 (GB005, Inc., priority 2020, published 2022).

Key:
[1] = target: T1, STK11/LKB1 (Homo sapiens, UniProt Q15831); experiment: Large panel kinase profiling; assay type: biochemical; settings: 1 μM test article, 1 mM ATP
T1 construct: AssayQuant Technologies, Inc. (contract assay)
T1 sequence (Q15831 1-433): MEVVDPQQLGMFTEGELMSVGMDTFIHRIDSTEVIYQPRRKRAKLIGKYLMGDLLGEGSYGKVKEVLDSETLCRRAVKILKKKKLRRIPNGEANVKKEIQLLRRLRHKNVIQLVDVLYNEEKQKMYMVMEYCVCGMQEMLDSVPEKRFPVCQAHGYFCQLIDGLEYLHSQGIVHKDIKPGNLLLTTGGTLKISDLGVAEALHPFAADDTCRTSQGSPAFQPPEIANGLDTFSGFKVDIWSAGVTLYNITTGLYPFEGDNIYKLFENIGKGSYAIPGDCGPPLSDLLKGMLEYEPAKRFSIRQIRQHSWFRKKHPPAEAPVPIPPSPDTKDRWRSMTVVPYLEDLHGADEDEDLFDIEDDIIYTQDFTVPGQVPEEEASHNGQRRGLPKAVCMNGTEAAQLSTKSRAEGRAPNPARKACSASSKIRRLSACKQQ
T1 sequence (Q7RTN6 1-431 partner): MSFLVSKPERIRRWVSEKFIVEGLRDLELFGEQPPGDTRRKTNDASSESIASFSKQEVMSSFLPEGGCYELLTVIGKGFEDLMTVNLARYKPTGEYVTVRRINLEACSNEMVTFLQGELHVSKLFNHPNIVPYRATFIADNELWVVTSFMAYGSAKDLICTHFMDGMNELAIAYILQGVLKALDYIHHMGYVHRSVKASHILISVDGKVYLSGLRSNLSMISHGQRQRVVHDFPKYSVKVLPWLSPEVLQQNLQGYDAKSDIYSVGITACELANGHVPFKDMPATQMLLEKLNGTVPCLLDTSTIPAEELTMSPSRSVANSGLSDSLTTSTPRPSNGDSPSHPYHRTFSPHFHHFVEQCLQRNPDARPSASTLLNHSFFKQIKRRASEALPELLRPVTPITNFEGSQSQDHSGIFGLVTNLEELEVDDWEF
T1 sequence (Q9Y376 1-341 partner): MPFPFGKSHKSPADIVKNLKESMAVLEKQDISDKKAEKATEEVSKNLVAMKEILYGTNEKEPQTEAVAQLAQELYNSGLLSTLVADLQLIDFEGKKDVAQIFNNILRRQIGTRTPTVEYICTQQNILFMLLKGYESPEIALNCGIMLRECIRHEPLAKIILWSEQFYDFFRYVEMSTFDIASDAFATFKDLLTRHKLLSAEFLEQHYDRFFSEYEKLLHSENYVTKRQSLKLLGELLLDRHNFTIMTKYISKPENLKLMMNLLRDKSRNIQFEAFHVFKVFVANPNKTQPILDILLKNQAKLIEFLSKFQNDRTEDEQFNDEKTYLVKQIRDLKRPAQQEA
How it was run: (§1)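 With ATP fixed at 1 mM, each kinase was exposed to 1 μM compound in a PhosphoSens CSox-Sensor reaction. Sealed plates were incubated at 30° C. and read in kinetic mode.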

[2] = target: T2, EPHA1 (Homo sapiens, UniProt P21709); experiment: Large panel kinase profiling; assay type: biochemical; settings: 1 μM test article, 1 mM ATP
T2 sequence (P21709 26-976): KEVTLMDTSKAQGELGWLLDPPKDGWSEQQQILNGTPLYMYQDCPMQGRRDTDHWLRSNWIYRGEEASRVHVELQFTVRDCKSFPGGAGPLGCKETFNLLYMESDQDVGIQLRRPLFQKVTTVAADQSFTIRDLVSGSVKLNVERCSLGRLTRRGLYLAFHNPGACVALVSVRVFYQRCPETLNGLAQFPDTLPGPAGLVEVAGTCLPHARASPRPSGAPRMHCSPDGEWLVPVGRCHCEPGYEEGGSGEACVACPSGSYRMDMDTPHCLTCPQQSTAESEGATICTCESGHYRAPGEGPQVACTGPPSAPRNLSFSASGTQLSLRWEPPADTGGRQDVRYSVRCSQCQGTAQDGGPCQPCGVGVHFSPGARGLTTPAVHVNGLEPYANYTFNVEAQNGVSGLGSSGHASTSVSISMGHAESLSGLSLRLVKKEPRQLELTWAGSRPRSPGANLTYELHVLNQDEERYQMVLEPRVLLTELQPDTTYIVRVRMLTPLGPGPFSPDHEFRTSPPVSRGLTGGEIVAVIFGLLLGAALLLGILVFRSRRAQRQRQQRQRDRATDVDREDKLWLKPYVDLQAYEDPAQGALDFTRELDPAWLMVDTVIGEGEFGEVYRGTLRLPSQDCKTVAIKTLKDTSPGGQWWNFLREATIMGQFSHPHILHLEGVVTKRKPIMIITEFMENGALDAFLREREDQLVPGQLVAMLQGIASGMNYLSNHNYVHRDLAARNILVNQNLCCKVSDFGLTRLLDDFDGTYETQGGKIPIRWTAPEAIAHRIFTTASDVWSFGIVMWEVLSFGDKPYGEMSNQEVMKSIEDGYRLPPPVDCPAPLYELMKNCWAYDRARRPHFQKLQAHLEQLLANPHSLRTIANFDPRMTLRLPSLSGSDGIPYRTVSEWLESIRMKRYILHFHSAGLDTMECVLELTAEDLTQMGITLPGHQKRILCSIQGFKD
How it was run: as §1

`C=CC(=O)N1CCCC(c2c(F)cc(C(N)=O)c3[nH]c4c(c23)CCCCC4)C1` (single isomer, unassigned) [Compound 5-6] gave an inhibition at 1 µM [1] of 23.5% and an inhibition at 1 µM [2] of 3.7%.
Compound `C=CC(=O)N1CCC[C@@H](c2c(F)cc(C(N)=O)c3[nH]c4c(c23)CCC4)C1` [Compound 10-2, (S)-8-(1-acryloylpiperidin-3-yl)-7-fluoro-1,2,3,4-tetrahydrocyclo-penta[b]indole-5-carboxamide] has an inhibition at 1 µM [1] of -6% and an inhibition at 1 µM [2] of 8.5%.
Work on `C=CC(=O)N1CCC[C@@H](c2c(F)cc(C(N)=O)c3[nH]c4c(c23)CC2(CC4)CC2)C1` [Compound 6-2, (S)-5-(1-acryloylpiperidin-3-yl)-6-fluoro-1,2,4,9-tetrahydrospiro[carbazole-3,1′-cyclopropane]-8-carboxamide] yielded an inhibition at 1 µM [1] of -4.3% and an inhibition at 1 µM [2] of 22%.
